Like-named read-outs stand apart in the source and are kept apart here.
Tests used:
[1] = pKa measurement of unformulated amine lipid (fluorescence, method of Jayaraman et al.); type: physicochemical; settings: 100 μM in 0.1 M phosphate buffer pH 4.5-9.0
Protocol: The pKa of each amine lipid was determined according to the method in Jayaraman, et al. (Angewandte Chemie, 2012) with the following adaptations. […] Lipid was diluted to 100 μM in 0.1 M phosphate buffer (Boston Bioproducts) where the pH ranged from 4.5-9.0. Fluorescence intensity was measured using excitation and emission wavelengths of 321 nm and 448 nm.

[2] = tested on: TTR; test: Transthyretin (TTR) ELISA analysis of mouse serum after LNP dosing; type: in vivo; settings: for inhibition in vivo at 0.03 mg/kg / response vs control in vivo at 0.1 mg/kg: Mus musculus, iv; for inhibition in vivo at 0.03 mg/kg: read-out: Serum TTR (% KD); for response vs control in vivo at 0.1 mg/kg: read-out: Serum TTR % TSS
Protocol: (§1) CD-1 female mice, ranging from 6-10 weeks of age were used in each study. Animals were weighed and grouped according to body weight for preparing dosing solutions based on group average weight. LNPs were dosed via the lateral tail vein in a volume of 0.2 mL per animal (approximately 10 mL per kilogram body weight). The animals were periodically observed post dose for adverse effects for at least 24 hours post dose. Animals were euthanized at 6 or 7 days by exsanguination via cardiac puncture under isoflurane anesthesia. Blood was collected into serum separator tubes or into tubes containing buffered sodium citrate for plasma as described herein. For studies involving in vivo editing, liver tissue was collected from each animal for DNA extraction and analysis.
CD-1 female mice were dosed i.v. at 0.1 mpk or 0.3 mpk. […] For animals dosed with G282 targeting TTR, blood and the liver were collected and serum TTR and editing were measured. For animals dosed with G650 targeting B2M, liver was collected and editing was measured.
Blood was collected and the serum was isolated as indicated. The total mouse TTR serum levels were determined using a Mouse Prealbumin (Transthyretin) ELISA Kit (Aviva Systems Biology, Cat. OKIA00111). Briefly, sera were serial diluted with kit sample diluent to a final dilution of 10,000-fold for 0.1 mpk dose and 2,500-fold for 0.3 mpk. This diluted sample was then added to the ELISA plates and the assay was then carried out according to directions.

[3] = LNP average particle size and polydispersity by dynamic light scattering (Malvern Zetasizer); type: physicochemical
Text: The LNPs have a size of about 1 to about 1,000 nm, about 10 to about 500 nm, about 20 to about 500 nm, in a sub-embodiment about 50 to about 400 nm, in a sub-embodiment about 50 to about 300 nm, in a sub-embodiment about 50 to about 200 nm, and in a sub-embodiment about 50 to about 150 nm, and in another sub-embodiment about 60 to about 120 nm. Preferably, the LNPs have a size from about 60 nm to about 100 nm. The average sizes (diameters) of the fully formed LNP, may be measured by dynamic light scattering on a Malvern Zetasizer. The LNP sample is diluted in phosphate buffered saline (PBS) so that the count rate is approximately 200-400 kcps. The data is presented as a weighted average of the intensity measure.
The LNPs disclosed herein have a size (e.g. Z-average diameter) of about 1 to about 250 nm. In some embodiments, the LNPs have a size of about 10 to about 200 nm. In further embodiments, the LNPs have a size of about 20 to about 150 nm. In some embodiments, the LNPs have a size of about 50 to about 150 nm. In some embodiments, the LNPs have a size of about 50 to about 100 nm. In some embodiments, the LNPs have a size of about 50 to about 120 nm. In some embodiments, the LNPs have a size of about 60 to about 100 nm. In some embodiments, the LNPs have a size of about 75 to about 150 nm. In some embodiments, the LNPs have a size of about 75 to about 120 nm. In some embodiments, the LNPs have a size of about 75 to about 100 nm. Unless indicated otherwise, all sizes referred to herein are the average sizes (diameters) of the fully formed nanoparticles, as measured by dynamic light scattering on a Malvern Zetasizer. The nanoparticle sample is diluted in phosphate buffered saline (PBS) so that the count rate is approximately 200-400 kcps. The data is presented as a weighted-average of the intensity measure (Z-average diameter).
Dynamic Light Scattering (“DLS”) is used to characterize the polydispersity index (“pdi”) and size of the LNPs of the present disclosure. DLS measures the scattering of light that results from subjecting a sample to a light source. PDI, as determined from DLS measurements, represents the distribution of particle size (around the mean particle size) in a population, with a perfectly uniform population having a PDI of zero.
LNP compositions are analyzed for average particle size, polydispersity index (pdi), total RNA content, encapsulation efficiency of RNA, and zeta potential. LNP compositions may be further characterized by lipid analysis, AF4-MALS, NTA, and/or cryo-EM. Average particle size and polydispersity are measured by dynamic light scattering (DLS) using a Malvern Zetasizer DLS instrument. LNP samples were diluted with PBS buffer prior to being measured by DLS. Z-average diameter which is an intensity-based measurement of average particle size was reported along with number average diameter and pdi. A Malvern Zetasizer instrument is also used to measure the zeta potential of the LNP. Samples are diluted 1:17 (50 μL into 800 μL) in 0.1×PBS, pH 7.4 prior to measurement.

[4] = tested on: TTR; test: TTR editing in mouse liver by NGS after i.v. LNP delivery of Cas9 mRNA and sgRNA; type: in vivo; settings: CD-1 female mice
Protocol: Preparations of various LNP compositions were prepared with amine lipids. In assays for percent liver editing in mice, Cas9 mRNA and chemically modified sgRNA were formulated in LNPs, at either a 1:1 w/w ratio or a 1:2 w/w ratio. LNPs are formulated with a composition of a given ionizable lipid (e.g. an amine lipid), DSPC, cholesterol, and PEG-2k-DMG, with a 6.0 N:P ratio.
as §1
Cohorts of mice were measured for liver editing by Next-Generation Sequencing (NGS).
In brief, to quantitatively determine the efficiency of editing at the target location in the genome, genomic DNA was isolated and deep sequencing was utilized to identify the presence of insertions and deletions introduced by gene editing.
PCR primers were designed around the target site (e.g., B2M), and the genomic area of interest was amplified. Additional PCR was performed according to the manufacturer's protocols (Illumina) to add the necessary chemistry for sequencing. The amplicons were sequenced on an Illumina MiSeq instrument. The reads were aligned to the […] after eliminating those having low quality scores. The resulting files containing the reads were mapped to the reference genome (BAM files), where reads that overlapped the target region of interest were selected and the number of wild type reads versus the number of reads which contain an insertion, substitution, or deletion was calculated.
The editing percentage (e.g., the “editing efficiency” or “percent editing”) is defined as the total number of sequence reads with insertions or deletions over the total number of sequence reads, including wild type.
CD-1 female mice were dosed i.v. at 0.1 mpk or 0.3 mpk. At 6 days post-dose, animals were sacrificed. For animals dosed with G282 targeting TTR, blood and the liver were collected and serum TTR and editing were measured. For animals dosed with G650 targeting B2M, liver was collected and editing was measured.

[5] = RNA encapsulation efficiency of LNP (Ribogreen fluorescence assay); type: physicochemical; settings: N:P 6.0
Protocol: A fluorescence-based assay (Ribogreen®, ThermoFisher Scientific) is used to determine total RNA concentration and free RNA. Encapsulation efficiency is calculated as (Total RNA−Free RNA)/Total RNA. LNP samples are diluted appropriately with 1× TE buffer containing 0.2% Triton-X 100 to determine total RNA or 1× TE buffer to determine free RNA. Standard curves are prepared by utilizing the starting RNA solution used to make the compositions and diluted in 1× TE buffer+/−0.2% Triton-X 100. Diluted RiboGreen® dye (according to the manufacturer's instructions) is then added to each of the standards and samples and allowed to incubate for approximately 10 minutes at room temperature, in the absence of light. A SpectraMax M5 Microplate Reader (Molecular Devices) is used to read the samples with excitation, auto cutoff and emission wavelengths set to 488 nm, 515 nm, and 525 nm respectively. Total RNA and free RNA are determined from the appropriate standard curves.
Encapsulation efficiency is calculated as (Total RNA−Free RNA)/Total RNA. The same procedure may be used for determining the encapsulation efficiency of a DNA-based cargo component. For single-strand DNA Oligreen Dye may be used, and for double-strand DNA, Picogreen Dye.

[6] = Example 64: Dose 0.03 mpk (table) i.v., 7 days post-dose, G282 1:1
[7] = 168 h, Example 64: Dose 0.03 mpk (table) i.v., 7 days post-dose, G282 1:1
[8] = Table 26, Example 64: LNP, G282 1:1
[9] = Table 26, Example 64: LNP, G282 (TTR) 1:1 w/w
[10] = Example 61: 0.1 mpk i.v., 7 days post-dose, G282 1:1
[11] = Table 20, Example 61: LNP, G282 1:1
[12] = Example 58: 0.1 mpk i.v., 6 days post-dose, G282 1:1
[13] = Table 14, Example 58: LNP, G282 1:1
[14] = Example 60: 0.1 mpk i.v., 6 days post-dose, G502 1:2
[15] = Table 18, Example 60: LNP, G502 1:2
[16] = Example 59: 0.1 mpk i.v., 7 days post-dose, G282 1:1
[17] = Table 16, Example 59: LNP, G282 1:1

CCCCCCCCCOC(=O)CCCCCCCN(CCCCCCC(OCCCCCCCC)OCCCCCCCC)CCCOC(=O)NC [Compound 40, nonyl 8-((7,7-bis(octyloxy)heptyl)(3-((methylcarbamoyl)oxy)propyl)amino)octanoate]
pKa [1]: 5.71
Serum TTR [2, 6]: 417.0 µg/mL
inhibition in vivo at 0.03 mg/kg [2, 7]: 27.2%
Num Ave Size (nm) [3, 8]: 64 nm
PDI [3, 8]: 0.06
Z-Ave Size (nm) [3, 8]: 83 nm
Editing Mean % Indel [4, 6]: 27.5%
Encapsulation (%) [5, 9]: 96%

CCCCCCCCCOC(=O)CCCCCCCN(CCO)CCCCCCCCCC(CCCCCCCC)CCCCCCCC [Compound 26, nonyl 8-((2-hydroxyethyl)(10-octyloctadecyl)amino)octanoate, reference compound]
pKa [1]: 6.19
Serum TTR [2, 10]: 979 µg/mL
response vs control in vivo at 0.1 mg/kg ([2]; 168 h, Example 61: 0.1 mpk i.v., 7 days post-dose, G282 1:1): 76%
Num Ave Size (nm) [3, 11]: 48.37 nm
PDI [3, 11]: 0.07
Z-Ave Size (nm) [3, 11]: 63.25 nm
Editing Mean % Indel [4, 10]: 2.6%
Encapsulation (%) ([5]; Table 20, Example 61: LNP, G282 (TTR) 1:1 w/w): 99%

CCCCCC/C=C\COC(=O)CCCCCCCN(CCO)CCCCCCCC(OCCCCCCCC)OCCCCCCCC [Compound 16, (Z)-non-2-en-1-yl 8-((8,8-bis(octyloxy)octyl)(2-hydroxyethyl)amino)octanoate]
pKa [1]: 6.34
Serum TTR [2, 12]: 516 µg/mL
response vs control in vivo at 0.1 mg/kg ([2]; 144 h, Example 58: 0.1 mpk i.v., 6 days post-dose, G282 1:1): 52%
Num Ave Size (nm) [3, 13]: 66.66 nm
PDI [3, 13]: 0.132
Z-Ave Size (nm) [3, 13]: 109.5 nm
Editing Mean % Indel [4, 12]: 35.2%
Encapsulation (%) ([5]; Table 14, Example 58: LNP, G282 (TTR) 1:1 w/w): 78%

CCCCCCCCCOC(=O)CCCCCCCN(CCCCCCC(OCCCCCCCC)OCCCCCCCC)CCCNC(=O)NC [Compound 46, nonyl 8-((7,7-bis(octyloxy)heptyl)(3-(3-methylureido)propyl)amino)octanoate]
pKa [1]: 7.64
Serum TTR [2, 6]: 514.6 µg/mL
inhibition in vivo at 0.03 mg/kg [2, 7]: 10.1%
Num Ave Size (nm) [3, 8]: 86 nm
PDI [3, 8]: 0.03
Z-Ave Size (nm) [3, 8]: 104 nm
Editing Mean % Indel [4, 6]: 8.7%
Encapsulation (%) [5, 9]: 98%

CCCCCCCCOC(CCCCCCCN(CCO)CCCCCCCCOC(=O)CCCCCCCC)OCCCCCCCC [Compound 23, 8-((8,8-bis(octyloxy)octyl)(2-hydroxyethyl)amino)octyl nonanoate]
pKa [1]: 6.04
Serum TTR [2, 14]: 307 µg/mL
response vs control in vivo at 0.1 mg/kg ([2]; 144 h, Example 60: 0.1 mpk i.v., 6 days post-dose, G502 1:2): 22%
Num Ave Size (nm) [3, 15]: 61.86 nm
PDI [3, 15]: 0.054
Z-Ave Size (nm) [3, 15]: 79.04 nm
Editing Mean % Indel [4, 14]: 53.6%
Encapsulation (%) ([5]; Table 18, Example 60: LNP, G502 (TTR), sgRNA:Cas9 mRNA 1:2 w/w): 93%

CCCCCCCCCOC(=O)CCCCCCCN(CCO)CCCCCCC(OCCCCCCC)OCCCCCCC [Compound 20, nonyl 8-((7,7-bis(heptyloxy)heptyl)(2-hydroxyethyl)amino)octanoate]
pKa [1]: 5.81
Serum TTR [2, 16]: 210 µg/mL
response vs control in vivo at 0.1 mg/kg ([2]; 168 h, Example 59: 0.1 mpk i.v., 7 days post-dose, G282 1:1): 23%
Num Ave Size (nm) [3, 17]: 58.65 nm
PDI [3, 17]: 0.102
Z-Ave Size (nm) [3, 17]: 84.49 nm
Editing Mean % Indel [4, 16]: 35.0%
Encapsulation (%) ([5]; Table 16, Example 59: LNP, G282 (TTR) 1:1 w/w): 83%

Source: patent US20260225997A1, “IONIZABLE AMINE LIPIDS” (Intellia Therapeutics, Inc., priority 2018, published 2026)
